Experiments:
[1] = tested on: catfish olfactory neurons; conditions: 100 μM, catfish olfactory epithelium; cited from earlier work
receptor 5.24 [2] = molecular target: T1, receptor 5.24 (Carassius auratus, UniProt Q9PW88); test: IP3 accumulation in receptor 5.24-expressing HEK 293 cells; type: cell-based, goldfish; conditions: varying concentrations
T1 construct: The receptor 5.24 full length cDNA detects 1-2 bands in genomic DNA blots; expressed in transfected cells; host or cells: HEK 293 cells expressing SV40 large T antigen (293-TSA)
T1 sequence (Q9PW88 25-877): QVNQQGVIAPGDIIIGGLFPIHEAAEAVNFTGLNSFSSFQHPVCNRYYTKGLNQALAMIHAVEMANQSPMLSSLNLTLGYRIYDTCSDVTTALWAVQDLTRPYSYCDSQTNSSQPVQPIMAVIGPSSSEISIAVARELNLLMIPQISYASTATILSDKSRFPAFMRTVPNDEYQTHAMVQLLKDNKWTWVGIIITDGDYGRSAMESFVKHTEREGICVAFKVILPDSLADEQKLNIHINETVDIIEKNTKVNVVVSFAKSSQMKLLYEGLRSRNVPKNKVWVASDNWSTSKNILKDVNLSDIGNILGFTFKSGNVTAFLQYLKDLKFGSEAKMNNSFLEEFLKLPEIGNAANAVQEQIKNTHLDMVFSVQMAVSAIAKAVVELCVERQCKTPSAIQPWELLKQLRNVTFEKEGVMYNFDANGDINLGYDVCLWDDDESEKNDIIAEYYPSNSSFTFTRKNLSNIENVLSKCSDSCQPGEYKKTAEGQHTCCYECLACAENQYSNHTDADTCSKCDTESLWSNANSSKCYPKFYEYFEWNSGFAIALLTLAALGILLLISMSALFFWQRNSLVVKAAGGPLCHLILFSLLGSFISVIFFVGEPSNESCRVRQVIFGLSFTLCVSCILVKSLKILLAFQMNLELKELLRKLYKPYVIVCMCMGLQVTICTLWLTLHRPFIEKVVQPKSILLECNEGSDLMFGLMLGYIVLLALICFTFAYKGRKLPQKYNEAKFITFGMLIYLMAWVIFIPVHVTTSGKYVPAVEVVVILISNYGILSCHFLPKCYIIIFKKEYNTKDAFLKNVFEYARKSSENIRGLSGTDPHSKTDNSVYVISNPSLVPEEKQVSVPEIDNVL
Source text: (§1) High-Affinity Binding of Radiolabeled L-Arginine to the Cloned Goldfish Odorant Receptor. To determine the affinity of the cloned goldfish amino acid receptor for basic amino acids, we characterized the ligand-receptor interaction by radiolabeled ligand binding to receptors expressed in mammalian cells. Human embryonic kidney (HEK) 293 cells were transfected with expression plasmids containing the receptor 5.24 cDNA insert. […] We next wished to determine what second messenger pathway receptor 5.24 couples to in HEK 293 cells. Control cells or cells expressing receptor 5.24 were exposed to varying concentrations of arginine and assayed for the accumulation of IP3 and cAMP.
(§2) IP3 and cAMP Measurements. For measurements of IP3 and cAMP, cell lines 5.24-20 and 2.2-9 (negative control) were plated at densities of 3.5×10^5 cells/well in 24 well plates and incubated overnight in DMEM containing 10% FBS. All subsequent manipulations prior to reaction termination were performed at 37° C. in 5% CO2. […] IP3 levels were determined by a radioreceptor competition assay (Dupont NEN). For cAMP measurements, after the 3 hour amino acid-free preincubation cells were washed once with PBS, preincubated for 15 min in PBS containing 0.5 mM IBMX, and exposed to odorants in 400 μl PBS/0.5 mM IBMX for 30 min. cAMP levels were determined by radioimmunoassay (DuPont NEN).

[3] = tested on: goldfish olfactory system; conditions: cited from earlier work
[4] = tested on: goldfish olfactory neurons; test: multi-unit recordings from the goldfish olfactory epithelium; type: cell-based; conditions: 100 μM
receptor 5.24 [5] = molecular target: T1, receptor 5.24; test: cAMP accumulation in receptor 5.24-expressing HEK 293 cells; type: cell-based, goldfish; conditions: 0.1 mM or 10 mM
Source text: as §1, §2

N=C(N)NCCC[C@H](N)C(=O)O [L-Arginine]
fraction of olfactory neurons responding [1]: ~40%
IP3 accumulation, in words (receptor 5.24 [2]): specific increase in IP3
in vivo threshold sensitivity [3]: ca. 1 nM
locations with spontaneous activity that responded [4]: 25 out of 28
change in cAMP levels, in words (receptor 5.24 [5]): does not cause a detectable change
